Legend:
[1] = test system: zebrafish HDAC6 CD2 (zHDAC6-CD2); set-up: method as in PMID 36528061; conditions: cited from earlier work
[2] = test system: HDAC6; conditions: cited from earlier work
[3] = test system: HDAC6 with respect to all other isoforms, including HDAC10; set-up: method as in PMID 36528061; conditions: cited from earlier work
[4] = target: T1, Human HDAC6 (GST-HDAC6) (Homo sapiens, UniProt Q9UBN7); test: Jump-dilution assay, kinetics of relief of inhibition of HDAC6
T1 sequence (Q9UBN7 1-1215): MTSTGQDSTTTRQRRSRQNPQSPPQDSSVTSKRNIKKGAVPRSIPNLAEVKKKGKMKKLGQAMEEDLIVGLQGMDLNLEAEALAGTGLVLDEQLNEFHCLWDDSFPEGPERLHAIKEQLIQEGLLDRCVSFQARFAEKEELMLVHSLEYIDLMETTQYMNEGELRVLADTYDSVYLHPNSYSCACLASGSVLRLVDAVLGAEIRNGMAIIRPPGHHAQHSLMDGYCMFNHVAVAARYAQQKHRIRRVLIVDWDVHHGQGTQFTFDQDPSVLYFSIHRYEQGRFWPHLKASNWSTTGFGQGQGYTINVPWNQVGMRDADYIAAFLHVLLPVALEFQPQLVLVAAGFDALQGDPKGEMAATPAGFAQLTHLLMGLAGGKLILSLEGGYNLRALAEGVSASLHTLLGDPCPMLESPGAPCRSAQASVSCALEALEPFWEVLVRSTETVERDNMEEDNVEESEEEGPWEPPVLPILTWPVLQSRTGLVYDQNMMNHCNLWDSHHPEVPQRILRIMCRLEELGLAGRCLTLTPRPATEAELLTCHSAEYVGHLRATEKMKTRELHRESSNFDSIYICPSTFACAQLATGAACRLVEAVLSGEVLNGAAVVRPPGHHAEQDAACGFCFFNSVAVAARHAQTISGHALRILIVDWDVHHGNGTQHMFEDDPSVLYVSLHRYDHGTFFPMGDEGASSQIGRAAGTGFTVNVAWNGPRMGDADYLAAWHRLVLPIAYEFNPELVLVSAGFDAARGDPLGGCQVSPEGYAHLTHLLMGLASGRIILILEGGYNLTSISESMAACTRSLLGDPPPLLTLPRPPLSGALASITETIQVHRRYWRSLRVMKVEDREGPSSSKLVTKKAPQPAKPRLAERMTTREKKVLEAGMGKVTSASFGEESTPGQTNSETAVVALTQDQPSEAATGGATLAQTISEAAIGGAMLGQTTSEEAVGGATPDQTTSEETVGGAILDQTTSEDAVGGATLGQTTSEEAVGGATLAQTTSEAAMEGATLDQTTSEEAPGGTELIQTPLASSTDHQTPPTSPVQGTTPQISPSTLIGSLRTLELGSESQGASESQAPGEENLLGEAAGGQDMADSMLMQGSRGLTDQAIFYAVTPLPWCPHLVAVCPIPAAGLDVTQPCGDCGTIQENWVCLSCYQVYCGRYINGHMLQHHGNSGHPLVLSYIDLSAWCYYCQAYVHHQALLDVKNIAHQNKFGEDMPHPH
Source text: (§1) Human HDAC6, as a chimeric form in which the full-length protein is preceded by glutathione S-transferase (GST), was purchased from BPS Bioscience.
From the slope of the lines and the intercepts (insets of Figure 1 E,G), one can calculate the apparent rate constants for formation of the inhibited complex and for its dissociation through Equation (4) (Table 1). Through Equation (5), the apparent dissociation constant of the EI complex could be calculated (Table 1). From jump-dilution assays of the type shown in Figure 1, right panels, the koff was independently calculated through Equation (2) (or from the linear part of the curves) in the presence of saturating substrate, to minimize the possibility that the inhibitor rebinds to the enzyme after dissociation (Table 1).
Panels (A,C,E,G): kinetics of onset of inhibition. […] Aliquots of reactions were stopped at different times with TSA and subsequently developed, as described in detailed methods in Supplementary information. […] The data were fitted to Equation (2) to determine the steady-state velocity values (vs), which were used to calculate IC50 and kobs (Table 1). The initial velocity was set to the value measured in the absence of the inhibitor. […] They were used to determine the mechanism of slow-binding inhibition, and estimates of kon, koff and Ki (Table 1). […]

[5] = target: T1, Human HDAC6 (GST-HDAC6); test: Kinetics of onset of inhibition of HDAC6, progress curves with Fluor de Lys Green substrate; conditions: for slope factor (s): slope factor of the IC50 fit, Equation (1)
Source text: as §1
The activity assay described here is based on the use of the commercially available Fluor de Lys Green substrate, which contains an acetylated lysine residue covalently bound through an amide bond to the amino group of a fluorophore, likely a rhodamine derivative. Deacetylation of the lysine residue makes the amide bond susceptible to trypsin cleavage with release of the fluorophore that is accompanied by fluorescence increase.
For activity assays in the absence of inhibitors, measured fluorescence values at different reaction times, after subtraction of the background fluorescence, were analyzed to determine the initial velocity of reactions from the initial linear part of the curve. […] If the onset and relief of inhibition were sufficiently fast, compared to the time of the assay, the steady-state velocity could be calculated from the linear part of the progress curve at long reaction times. […] Thus, we could calculate apparent values of kon (the second-order rate constant for formation of the enzyme–inhibitor complex) and koff (the first-order rate constant for dissociation of the enzyme–inhibitor complex) for a simple E + I ↔ EI equilibrium from Equation (4). From the observed rates of complex formation and dissociation, an apparent dissociation constant of the complex could be calculated (Equation (5); [31, 40]). kobs = kon^app [I] + koff (4) Ki^app = koff/kon^app (5)
The steady-state velocities were used to estimate the IC50 and cooperativity (if any) from the “slope factor” (s) by calculating the percentage residual activity as a function of inhibitor concentration, and fitting to Equation (1).
From jump-dilution assays of the type shown in Figure 1, right panels, the koff was independently calculated through Equation (2) (or from the linear part of the curves) in the presence of saturating substrate, to minimize the possibility that the inhibitor rebinds to the enzyme after dissociation (Table 1).
Aliquots of reactions were stopped at different times with TSA and subsequently developed, as described in detailed methods in Supplementary information. […] The data were fitted to Equation (2) to determine the steady-state velocity values (vs), which were used to calculate IC50 and kobs (Table 1). The initial velocity was set to the value measured in the absence of the inhibitor.

[6] = target: T2, Human HDAC6 (Homo sapiens, UniProt Q9UBN7); test: Yonetani-Theorell analysis of the binding of ITF2357 and ITF3756 to HDAC6; format: biochemical; conditions: with respect to the Fluor de Lys substrate; parallel lines in Yonetani-Theorell plots
T2 sequence (Q9UBN7 1-1215): T1 sequence (Q9UBN7 1-1215)
Source text: Enzymes. Human HDAC6, as a chimeric form in which the full-length protein is preceded by glutathione S-transferase (GST), was purchased from BPS Bioscience.
In this analysis, the substrate concentration (S) is maintained constant at a sub-saturating concentration, and the concentration of one inhibitor (I) is varied in the presence of different levels of the second (J). The reaction velocity at a given I and J concentration pair (vij) depends on the corresponding inhibition constants (KI and KJ) and an interaction factor γ (Equation (7)). If I and J bind to the same site on the enzyme in a mutually exclusive way, the plots of reciprocal velocity as a function of the varied inhibitor concentration, at different constant levels of the second, yield a set of parallel lines because the interaction factor γ→∞ (Equation (8)). In this case, the common slope (Equation (9)) depends on the velocity of the uninhibited reaction (vo) and the dissociation constant of the varying inhibitor (KI). The dependence of the intercepts on the concentration of the inhibitor kept constant at different levels (J) should be linear (Equation (10)). The initial velocity of the inhibited enzyme, and the inhibition constants KI and KJ can be calculated. […]
The time-course of reactions was monitored to calculate the steady-state velocity from the linear part of the curve. […]

FC(F)c1nnc(-c2ccc(Cn3cc(-c4ccc(NC5=NCCN5)cc4)nn3)cc2)o1 [Compound 1]
observed rate constant for the release from the enzyme in jump-dilution assays [1]: (9.6 ± 1.1) × 10^−3 min^−1 | rate constant for formation of the acyl-hydrazide from Compound 1 [1]: (6.04 ± 0.22)×10^−3 min^−1 | IC50 [2]: 7.7 nM | selectivity for HDAC6 with respect to all other isoforms [3]: greater than 10^4 | koff [4]: 0.000108 s⁻¹ | Ki [5]: 8.9 ± 0.23 nM | koff [5]: 8.33e-05 s⁻¹ | kon ([5]; read-out: kon^app): 9330 M⁻¹ s⁻¹ | slope factor (s) [5]: 0.96 ± 0.04

O=C(NNC(=O)C(F)F)c1ccc(Cn2cc(-c3ccc(NC4=NCCN4)cc3)nn2)cc1 [Compound 1a]
IC50 [2]: 1580 nM

NNC(=O)c1ccc(Cn2cc(-c3ccc(NC4=NCCN4)cc3)nn2)cc1 [Compound 1b]
IC50 [2]: 329 nM

CCN(CC)Cc1ccc2cc(COC(=O)Nc3ccc(C(=O)NO)cc3)ccc2c1 [ITF2357, reference compound]
time after start of reaction at which steady-state velocity was reached ([5]; reaction started by addition of the enzyme): approximately 15 min | slope factor (s) [5]: 1.0 ± 0.06 | mechanism of inhibition [6]: competitive inhibitor

[R-(E,E)]-7-[4-(Dimethylamino)phenyl]-N-hydroxy-4,6-dimethyl-7-oxo-2,4-heptadienamide [TSA, reference compound]
apparent koff ([4]; pre-incubated with 10 nM TSA for 90 min, 100-fold dilution, 25 µM Fluor-de-Lys Green): 0.032 ± 0.008 min‐1 | kinetic behaviour of onset and relief of inhibition ([5]; progress curves and jump-dilution assays): Slow binding
